Tests used:
[1] = test system: 5-alpha steroid reductase; assay: Testosterone metabolism in human and rat heart microsomal suspensions (HPLC of metabolites); type: biochemical; details: FIG. 3
[2] = test system: androgen receptor expression; assay: Androgen receptor expression in cultivated rat heart muscle cells (real-time RT-PCR); type: cell-based; details: testosterone added to culture medium (100 μM); isolated rat heart muscle cells; FIG. 5c
Protocol: (§1) Total RNA was isolated from heart tissue using the Total RNA Isolation Kit (Macherey-Nagel, Germany) according to the manufacturer's instructions. The quality of the isolated RNA was assessed by evaluating the ribosomal bands on agarose gel (1%). Of each sample, 2 μg RNA was used for reverse transcription. RNA and random primer (Roche Diagnostics, Mannheim, Germany) were preheated at 70° C. for 10 min. and subsequently incubated with 5×RT-AMV buffer (Roche Diagnostics, Mannheim, Germany), dNTPs (1 mM; Roche Diagnostics, Mannheim, Germany), 40U RNAse inhibitor (Stratagene, Amsterdam, Netherlands) and 20U AMV-RT (Promega, Mannheim, Germany) at a total volume of 20 μl for 60 min. at 42° C. […]
(§2) The studies were conducted With a lightcyler (Roche Diagnostics, Mannheim, Germany). […] By the end of each extension phase, fluorescence was measured to be used for evaluation. To guarantee that no unspecific primer dimers are measured, fluorescence detection was conducted above the temperature characteristic of primer dimers (as assessed in preliminary studies). Amplification was followed by a melting curve analysis, measuring fluorescence by slowly increasing the temperature of the DNA synthesis products from 65° C. to 95° C. […] The exact amount of the obtained PCR product was determined by co-amplification of standardized cardiac cDNA and according to the manufacturer's instructions. […]

[3] = test system: alpha-MHC expression; details: testosterone substitution (100 μM, 8 h); rat heart muscle cells; FIGS. 7 and 8
Protocol: as §1, §2

Row | Structure (SMILES) | 5-alpha-DHT production decreased ([1]; finasteride 25 μM, heart microsomes, 100 μM testosterone, 4 h at 37° C.) | production of dihydrotestosterone in the heart tissue ([1]; inhibition of 5-alpha reductase) | androgen receptor expression [2] | alpha-MHC expression [3]
1 | CC(C)(C)NC(=O)[C@H]1CC[C@H]2[C@@H]3CC[C@H]4NC(=O)C=C[C@]4(C)[C@H]3CC[C@]12C [finasteride] | 60% | reduced and normalized | – | –
2 | C[C@]12CC[C@H]3[C@@H](CCC4=CC(=O)CC[C@@]43C)[C@@H]1CC[C@@H]2O [testosterone] | – | – | reduces and normalizes | normalization

— US20060258632A1, “Methods and agents for treating cardiovascular diseases” (Fraunhofer-Gesellschaft zur Forderung der angewandten …, priority 2002, published 2006)
